Assay results: patent publication US20240060999A1, “BLOOD COAGULATION INSPECTION METHOD” (FUJIMORI KOGYO CO., LTD, priority 2020, published 2024)

Test system: whole blood
Assay: ROTEM whole blood coagulation with rabbit brain-derived tissue thromboplastin (TP) + Ca 12 mM (CTI 20 μg/mL, PKSI-527 40 μM where stated)
Type: cell-based
Conditions: for prolongation of blood clotting time with rTM by addition of heparan sulfate: reagents (1)-(4), all conditions, heparan sulfate 1 μg/mL
[1] = Ex15, TP 0.033 μg/mL+Ca+CTI+PKSI-527, heparan sulfate 0.3 μg/mL, no rTM
[2] = Ex15, TP 0.033 μg/mL+Ca+CTI+PKSI-527, heparan sulfate 0.3 μg/mL, rTM 5 nM
[3] = Ex15, TP 0.033 μg/mL+Ca+CTI+PKSI-527, heparan sulfate 0.4 μg/mL, no rTM
[4] = Ex15, TP 0.033 μg/mL+Ca+CTI+PKSI-527, heparan sulfate 0.4 μg/mL, rTM 5 nM
[5] = Ex15, TP 0.033 μg/mL+Ca+CTI+PKSI-527, heparan sulfate 0.5 μg/mL, no rTM
[6] = Ex15, TP 0.033 μg/mL+Ca+CTI+PKSI-527, heparan sulfate 0.5 μg/mL, rTM 5 nM
[7] = Ex17, TP 0.011 μg/mL+Ca+CTI+PKSI-527, heparan sulfate 0.2 μg/mL, no rTM
[8] = Ex17, TP 0.011 μg/mL+Ca+CTI+PKSI-527, heparan sulfate 0.2 μg/mL, rTM 10 nM
[9] = Ex17, TP 0.011 μg/mL+Ca+CTI+PKSI-527, heparan sulfate 0.3 μg/mL, no rTM
[10] = Ex17, TP 0.011 μg/mL+Ca+CTI+PKSI-527, heparan sulfate 0.3 μg/mL, rTM 10 nM
[11] = Ex17, TP 0.011 μg/mL+Ca+CTI+PKSI-527, heparan sulfate 0.5 μg/mL, no rTM
[12] = Ex17, TP 0.011 μg/mL+Ca+CTI+PKSI-527, heparan sulfate 0.5 μg/mL, rTM 10 nM
[13] = Ex18, TP 0.0166 μg/mL+Ca+CTI+PKSI-527, heparan sulfate 0.3 μg/mL, no rTM
[14] = Ex18, TP 0.0166 μg/mL+Ca+CTI+PKSI-527, heparan sulfate 0.3 μg/mL, rTM 10 nM
[15] = Ex18, TP 0.0166 μg/mL+Ca+CTI+PKSI-527, heparan sulfate 0.5 μg/mL, no rTM
[16] = Ex18, TP 0.0166 μg/mL+Ca+CTI+PKSI-527, heparan sulfate 0.5 μg/mL, rTM 10 nM
[17] = Ex18, TP 0.0166 μg/mL+Ca+CTI+PKSI-527, heparan sulfate 1.0 μg/mL, no rTM
[18] = Ex18, TP 0.0166 μg/mL+Ca+CTI+PKSI-527, heparan sulfate 1.0 μg/mL, rTM 10 nM

## Heparan sulfate
Ex15, TP 0.033 μg/mL+Ca+CTI+PKSI-527, heparan sulfate 0.2 μg/mL, rTM 5 nM
  CT (clotting time): 749 s
[1]
  CFT (clot formation time): 171 s
  CT (clotting time): 688 s
[2]
  CFT (clot formation time): 251 s
  CT (clotting time): 825 s
[3]
  CFT (clot formation time): 206 s
  CT (clotting time): 762 s
[4]
  CFT (clot formation time): 334 s
  CT (clotting time): 955 s
[5]
  CFT (clot formation time): 248 s
  CT (clotting time): 837 s
[6]
  CFT (clot formation time): 407 s
  CT (clotting time): 995 s
Ex17, TP 0.011 μg/mL+Ca+CTI+PKSI-527, heparan sulfate 0.2 μg/mL or more, rTM 10 nM
  blood clotting time: ≥ 1 h
[7]
  CFT (clot formation time): 578 s
  CT (clotting time): 1408 s
[8]
  CFT (clot formation time): No CFT
  CT (clotting time): No CT
[9]
  CFT (clot formation time): 430 s
  CT (clotting time): 1630 s
[10]
  CFT (clot formation time): No CFT
  CT (clotting time): No CT
[11]
  CFT (clot formation time): 386 s
  CT (clotting time): 1178 s
[12]
  CFT (clot formation time): No CFT
  CT (clotting time): No CT
[13]
  CFT (clot formation time): 256 s
  CT (clotting time): 1035 s
[14]
  CFT (clot formation time): 292.0 s
  CT (clotting time): 904 s
[15]
  CFT (clot formation time): 407 s
  CT (clotting time): 1162 s
[16]
  CFT (clot formation time): 742.0 s
  CT (clotting time): 1064 s
[17]
  CFT (clot formation time): No CT
  CT (clotting time): 1999 s
[18]
  CFT (clot formation time): No CFT
  CT (clotting time): No CT
  blood clotting time: ≥ 1 h
Ex30, reagent (1): TP 0.664 μg/mL+heparan sulfate 1 μg/mL+Ca, no rTM
  CT (clotting time): 220 s
Ex30, reagent (1): TP 0.664 μg/mL+heparan sulfate 1 μg/mL+Ca, rTM 25 nM
  CT (clotting time): 533 s
Ex30, reagent (1): TP 0.664 μg/mL+heparan sulfate 1 μg/mL+Ca, rTM 25 nM+APC inhibitory aptamer 1 μM
  CT (clotting time): 260 s
Ex30, reagent (2): TP 0.664 μg/mL+heparan sulfate 1 μg/mL+Ca+CTI, no rTM
  CT (clotting time): 214 s
Ex30, reagent (2): TP 0.664 μg/mL+heparan sulfate 1 μg/mL+Ca+CTI, rTM 25 nM
  CT (clotting time): 448 s
Ex30, reagent (2): TP 0.664 μg/mL+heparan sulfate 1 μg/mL+Ca+CTI, rTM 25 nM+APC inhibitory aptamer 1 μM
  CT (clotting time): 287 s
Ex30, reagent (3): TP 0.664 μg/mL+heparan sulfate 1 μg/mL+Ca+PKSI-527, no rTM
  CT (clotting time): 220 s
Ex30, reagent (3): TP 0.664 μg/mL+heparan sulfate 1 μg/mL+Ca+PKSI-527, rTM 25 nM
  CT (clotting time): 444 s
Ex30, reagent (3): TP 0.664 μg/mL+heparan sulfate 1 μg/mL+Ca+PKSI-527, rTM 25 nM+APC inhibitory aptamer 1 μM
  CT (clotting time): 291 s
Ex30, reagent (4): TP 0.664 μg/mL+heparan sulfate 1 μg/mL+Ca+CTI+PKSI-527, no rTM
  CT (clotting time): 226 s
Ex30, reagent (4): TP 0.664 μg/mL+heparan sulfate 1 μg/mL+Ca+CTI+PKSI-527, rTM 25 nM
  CT (clotting time): 440 s
Ex30, reagent (4): TP 0.664 μg/mL+heparan sulfate 1 μg/mL+Ca+CTI+PKSI-527, rTM 25 nM+APC inhibitory aptamer 1 μM
  CT (clotting time): 319 s
Ex30, rTM 25 nM
  prolongation of blood clotting time with rTM by addition of heparan sulfate: markedly prolonged
Ex31, reagent (1): TP 0.664 μg/mL+heparan sulfate 1 μg/mL+Ca, no rTM
  CT (clotting time): 220 s
Ex31, reagent (1): TP 0.664 μg/mL+heparan sulfate 1 μg/mL+Ca, rTM 30 nM
  CT (clotting time): 766 s
Ex31, reagent (1): TP 0.664 μg/mL+heparan sulfate 1 μg/mL+Ca, rTM 30 nM+APC inhibitory aptamer 1 μM
  CT (clotting time): 301 s
Ex31, reagent (2): TP 0.664 μg/mL+heparan sulfate 1 μg/mL+Ca+CTI, no rTM
  CT (clotting time): 214 s
Ex31, reagent (2): TP 0.664 μg/mL+heparan sulfate 1 μg/mL+Ca+CTI, rTM 30 nM
  CT (clotting time): 613 s
Ex31, reagent (2): TP 0.664 μg/mL+heparan sulfate 1 μg/mL+Ca+CTI, rTM 30 nM+APC inhibitory aptamer 1 μM
  CT (clotting time): 286 s
Ex31, reagent (3): TP 0.664 μg/mL+heparan sulfate 1 μg/mL+Ca+PKSI-527, no rTM
  CT (clotting time): 220 s
Ex31, reagent (3): TP 0.664 μg/mL+heparan sulfate 1 μg/mL+Ca+PKSI-527, rTM 30 nM
  CT (clotting time): 517 s
Ex31, reagent (3): TP 0.664 μg/mL+heparan sulfate 1 μg/mL+Ca+PKSI-527, rTM 30 nM+APC inhibitory aptamer 1 μM
  CT (clotting time): 297 s
Ex31, reagent (4): TP 0.664 μg/mL+heparan sulfate 1 μg/mL+Ca+CTI+PKSI-527, no rTM
  CT (clotting time): 226 s
Ex31, reagent (4): TP 0.664 μg/mL+heparan sulfate 1 μg/mL+Ca+CTI+PKSI-527, rTM 30 nM
  CT (clotting time): 557 s
Ex31, reagent (4): TP 0.664 μg/mL+heparan sulfate 1 μg/mL+Ca+CTI+PKSI-527, rTM 30 nM+APC inhibitory aptamer 1 μM
  CT (clotting time): 307 s
Ex31, rTM 30 nM
  prolongation of blood clotting time with rTM by addition of heparan sulfate: markedly prolonged
